# Measured values: US4956389A, “Compounds having calcium blocking activity” (priority 1982, dated 1990)
# Read-outs that look alike come from different tables or passages of the source.
# How the values were obtained:
# [1] = test system: mitochondria of liver of rats; test: Study on the Ca2+-efflux in mitochondria of liver of rats; assay type: biochemical, rat; details: 250 μM
# Description: The mitochondria of liver of rats prepared as in the preceding experiment were "charged" with Ca and subsequently, taken in a medium deprived of this ion. In the presence of an uncoupling agent or "Ruthenium Red", there is a flow of Ca^2+ ion from the mitochondria into the medium.
# The results reported in Table 4 are expressed as the quantity of Ca transferred from the mitochondria per mg of protein per minute.
# aorta of rabbits = test: Antagonistic activity on the contractions produced by arachidonic acid on the aorta of rabbits, study in vitro; set-up: species or system rabbit
# Experimental: The study has been carried out by comparison with Nicardipine using autologous blood as the perfusion liquid. The addition of 0.1 mg of arachidonate to the liquid induces an isometric contraction of the aorta which is registered by a transducer. […] This phenomenon is shown by the relaxation which follows the addition of arachidonate to the perfusion blood. This effect may be noted with 0.1 mg/kg of YS 035 and 1 mg/kg of Nicardipine.
# phosphodiesterase = test: Inhibition of the phosphodiesterase activity (method of K. G. Nair); assay type: biochemical
# Experimental: The inhibition of phosphodiesterase activity of YS 035 and of papaverine has been assessed according to the method of K. G. Nair (Biochemistry, 5, 150, 1966).
# It has been used a medium containing:
# 2.5 ml of buffer tris-HCl 0.1M pH 7.4;
# 50 μl CAMP "Sigma" (1 mg/ml);
# 5 μl Adenosin deaminase (2 mg/ml);
# 20 μl of alkaline phosphatase "Sigma" (2.6 mg/ml);
# 15 μl of phosphodiesterase (10 mg/ml).
# YS 035 has been added up to a final concentration of 100 mM and Papaverine to a concentration of 10 mM.
# calcium entry = test: Calcium antagonistic activity (general statement); details: compared with nifedipine
# [2] = test system: synaptosomes of the brain of rats; test: Inhibition of the Ca2+-uptake in synaptosomes of the brain of rats; assay type: biochemical, rat; details: 250 μM
# Experimental: The synaptosomes have been prepared from an homogenate of the brain of rats by centrifugation in the gradient of Filcoll at 23,500 rpm for a period of 30 minutes and diluted to 1.5 mg/cc in the medium constituted by:
# After 15 minutes of preincubation, ^45 CaCl2, final concentration 1 mM (0.2μCi/cc is added to the medium).
# The first determination has been carried out two minutes after the addition. […] After each period, the reaction has been stopped by centrifugation and the radioactivity has been determined in the supernatant as well as in the pellet. The latter had been denatured previously with PCA, neutralized and subsequently centrifuged.
smiles,measurement,setting,value
"COc1ccc(CCN(C)CCc2ccc(OC)c(OC)c2)cc1OC [YS 035, N-methyl-N-bis-(3,4-dimethoxy-phenyl-ethyl)amine]",uncoupling action (in words),[1],does not exhibit this action
same,Ca2+-efflux induced by Ruthenium red,[1]; control 0.7,0.6 n g ions/min. mg/prot
same,Ca2+-efflux induced by uncoupling agent,[1]; control 8.3,5.4 n g ions/min. mg/prot
same,Contraction of the first portion of the aorta,aorta of rabbits; N = 4,48 ± 6.7 mm
same,inhibition at 0.01 mg/kg,"aorta of rabbits; Oryctolagus cuniculus, dose 0.01 mg·Kg^-1, read-out: Contraction of the second and third portion of the aorta, % Variation",42 ± 31%
same,inhibition at 0.1 mg/kg,"aorta of rabbits; Oryctolagus cuniculus, dose 0.1 mg·Kg^-1, second and third portion, read-out: % Variation, small contractions observed occasionally prior to relaxation (value in brackets)",60 ± 29.3%
same,inhibition at 1 mg/kg,"aorta of rabbits; Oryctolagus cuniculus, dose 1.0 mg·Kg^-1, read-out: Contraction of the second and third portion of the aorta, % Variation",132 ± 16.1%
same,inhibition at 1 mg/kg,"aorta of rabbits; Oryctolagus cuniculus, line without dose, below dose 1.0 mg·Kg^-1, read-out: Contraction of the second and third portion of the aorta, % Variation",16%
same,minimal effective dose,"aorta of rabbits; Oryctolagus cuniculus, autologous blood perfusion, 0.1 mg arachidonate, read-out: dose at which relaxation following the addition of arachidonate is noted",0.1 mg/kg
same,inhibitory effect on the contraction produced by the arachidonate (in words),aorta of rabbits; YS 035 compared with Nicardipine,comparable
same,inhibiting activity on the phosphodiesterases (in words),phosphodiesterase; general statement,completely devoid of inhibiting activity on the phosphodiesterases
same,inhibition of phosphodiesterase activity (in words),phosphodiesterase; up to a final concentration of 100 mM,completely inactive
same,calcium antagonistic activity (in words),calcium entry,"strong calcium antagonistic activity, comparable to nifedipine"
same,inhibitory activity on the calcium uptake (in words),[2],comparable to the activity exhibited by Nifedipine
same,Ca2+-uptake,"[2]; 45CaCl2 1 mM, control 80 ± 7",47 ± 4 n g ions/mg prot/15 min
